Assay: solvent given as SMILES

O=C(O)c1ccccc1
Details	solvation free energy, 298 K [kJ/mol]
in C1CCOC1	-41.5
in C1COCCO1	-41
in C=CCCCCCCC=C	-26.2
in C=CCCCCCCCCCCCCCC	-24.4
in CC(=O)N(C)C	-42.3
in CC(C)=O	-40.3
in CC(C)CCO	-39.4
in CC(C)CO	-39.3
in CC(C)O	-40.3
in CCC(C)O	-39.4
in CCCC(C)O	-39.8
in CCCCCCCCCCO	-38.5
in CCCCCCCO	-38.8
in CCCCCCO	-39.3
in CCCCCO	-39.5
in CCCCO	-40.1
in CCCCOC(C)=O	-38.9
in CCCCOCCCC	-36.8
in CCCO	-40.2
in CCO	-40.6
in CCOC(C)=O	-39.5
in CCOCC	-39.5
in CN(C)C=O	-42.3
in CNC=O	-42
in CO	-41
in O	-29.1

CN1CCCCC1
Details	solvation free energy, 298 K [kJ/mol]
in COC(C)(C)C	-20.1
in O	-16.2

N
Details	solvation free energy, 298 K [kJ/mol]
in CC(C)=O	-8.45
in CC(C)CO	-10.6
in CC(C)O	-9.92
in CCC(C)=O	-8.12
in CCCCCCC	-5.31
in CCCCO	-10
in CCCO	-10
in CCO	-11.1
in CN1CCCC1=O	-7.74
in CO	-12.9
in ClC(Cl)Cl	-10.1
in Clc1ccccc1	-5.69
in O	-18.2

Reference: the CombiSolv-Exp solvation set (Vermeire and Green 2021)
